These results are taken from patent US8710241B2, “Crystalline form of zofenopril calcium” (Generics [UK]Limited, priority 2007, dated 2014).

Structures are written as SMILES. Counter-ions that a name gives are not always drawn.

The nature of data set [1]: Water vapour sorption isotherm (Surface Measurement Systems DVS-HT). The format is physicochemical. As to conditions: 25° C.; for Maximum water uptake: high/elevated relative humidity levels (greater than 90% rh), calcium salt. The protocol:
Equilibrium water uptake levels of less than 0.5 wt % were observed up to a relative humidity level of 70% rh, which may be considered the uppermost limit of ambient humidity conditions.
Determination of the water vapour sorption isotherms of zofenopril calcium crystalline form D according to the invention and of the prior art form B were performed by Surface Measurement Systems DVS-HT. The resultant isotherms, as shown in FIGS. 4 and 5 respectively, were obtained under the following parameters: • Temperature=25° C. • Humidity profile: Desorption 1: 50-0% relative humidity (rh) in steps of 10% • Adsorption: 0-90% rh in steps of 10%, 95% rh • Desorption 2: 95% rh, 90-50% rh in steps of 10% • Equilibration time per rh stage: 240 min (0% rh), 180 min (all other rh levels)

The conditions of data set [2]: TGA, 25-105° C.
Method: The compounds obtained by the processes according to the invention as described above and in the following examples were also subjected to thermogravimetric analysis (TGA). […] The TGA analysis data was obtained using a Mettler-Toledo TGA851e apparatus under the following parameters: • Temperature profile: 25-300° C.@5° C./min • Nitrogen purge gas: 50 ml/min • Aluminium pan: 40 μl, pierced prior to scan
Data set [3] can be described thus: DSC and XRPD experiments on polymorphic transition. The format is physicochemical. The conditions noted are these: up to temperatures of ca. 140° C. The procedure: The X-ray powder diffraction data was obtained by methods known in the art using a Bruker D8 Advance Powder Diffractometer with scintillation detector under the following parameters: • Reflectance mode • Cu Kα radiation (1.5406 Å) • Scanning range: 2-30 °2θ • Step size: 0.02 °2θ • Time per step: 6s

A short description of data set [4]: Conditioning (equilibration) of dried samples, characterised by XRPD. The format is physicochemical. As to conditions: conditioned at 30° C. for 30 minutes under nitrogen after drying. The protocol:
Approximately 100 mg of zofenopril calcium were dried at 50° C. for 120 minutes under a nitrogen flow atmosphere (flow rate: 500 ml/min). The sample was finally conditioned at 30° C. for 30 minutes under the nitrogen gas atmosphere.
The drying processes as detailed in the above examples yield the novel anhydrous form D of zofenopril calcium according to the invention. […] Thus, the compounds prepared by examples 1-5 were determined to be the same crystalline form and were distinct from the prior art forms A, B, and C. Further, the samples were then ‘conditioned’, i.e. they were allowed to equilibrate.

`C[C@H](CSC(=O)c1ccccc1)C(=O)N1C[C@@H](Sc2ccccc2)C[C@H]1C(=O)O` [form B, (4S)-1-[(2S)-3-(benzoylthio)-2-methylpropionyl]-4-(phenylthio)-L-proline calcium salt, reference compound]: the Maximum water uptake result in data set [1] is reported as “approximately 2.5 wt %”.
As to `C[C@H](CSC(=O)c1ccccc1)C(=O)N1C[C@@H](Sc2ccccc2)C[C@H]1C(=O)O` [form D, (4S)-1-[(2S)-3-(benzoylthio)-2-methylpropionyl]-4-(phenylthio)-L-proline calcium salt], the “Weight loss, equivalent to loss on drying (LOD)” value in data set [2] is on record as “less than 0.5 wt %”. Besides, in data set [1], the Maximum water uptake result is recorded as “ca. 1 wt %”. Moreover, the Equilibrium water uptake entry in data set [1] (up to a relative humidity level of 70% rh) is reported as “less than 0.5 wt %”. The “Re-conversion to hydrate form C upon exposure to water vapour” value in data set [1] (water vapour sorption isotherm, 0-95% rh) is given as “does not easily re-convert to hydrate form C”. In data set [3], the Polymorphic transition result is “no polymorphic transition”. In data set [4], the “Conversion upon cooling to hydrated form C or another crystalline form” value is “no conversion”.
